Source: publication PMC6013238, “Development of novel NEMO-binding domain mimetics for inhibiting IKK/NF-κB activation” (PLoS Biology, 2018)

System: JNK/p38MAPK signaling
Experiment: Western blot of JNK and p38MAPK phosphorylation in Raw 264.7 cells
Format: cell-based, mouse
Conditions: 150 μM; TNF-α or LPS stimulation
Procedure: To determine whether the novel NBD mimetics target the NEMO-IKKβ interaction in vivo, co-immunoprecipitations were performed using extracts from Raw 264.7 macrophages (Fig 5A). […] No interaction between NEMO and TNF receptor-associated factor 2 (TRAF2) or IκBα was observed under these conditions. […] The levels of phosphorylated IKK complex, IκBα, and p65 in response to TNF-α and LPS were all reduced by SR12343 (Fig 5D & 5E). […] However, there were no changes in the levels of phospho-c-Jun N-terminal kinase (p-JNK), p-p38MAPK, total JNK, and p38MAPK by treatment with SR12343 (150 μM) in response to TNF-α or LPS stimulation (Fig 5G & 5H). […]
(A) Co-IP analysis detecting the IKKβ/NEMO interaction. […] NEMO-binding products were then analyzed for levels of IKKβ, IKKα, TRAF2, and IκBα (negative control), and levels of NEMO were used as a loading control (left panel). […] The levels of IKKβ-FLAG binding to GST-NEMO were determined by western blot analysis with GST-NEMO used as a loading control. […] Cell lysates were analyzed for activity of the IKK/NF-κB signaling pathway including activation of IKK complex, IκBα, and p65. […] Cell lysates were harvested and analyzed for activation of noncanonical NF-κB signaling, the processing of p100 to p52. […]

O=C(CNc1ccc(Cl)cn1)NCCc1cccc(Br)c1 [SR12343]
Levels of p-JNK, p-p38MAPK, total JNK and p38MAPK: no changes
